# Experimental data as given in patent US20250289788A1, “HALOALKYL SULFONANILIDE COMPOUND AND HERBICIDE CONTAINING THE SAME” (SDS BIOTECH K.K., priority 2022, published 2025).
# Assays:
# Assay type in all cases: in vivo
# Ammannia multiflora (AM) = assay: Comparative Example: herbicidal efficacy test of treatment during growth stage under flooding conditions; conditions: treatment during growth stage (14 days after sowing), day 21 after treatment
# From the text: (§1) The control compound a is described as Compound No. III-1 on page 245 of PLT 5, and the control compound b is described as Compound No. III-9 on page 245 of PTL 5. […] As an example, herbicidal efficacy against critical paddy field weeds such as Monochoria vaginalis (MV) and Ammannia multiflora (AM) as well as Oryza sativa (OS) chemical damage were compared and are specifically described below as a Comparative Example.
# (§2) [Comparative Example] Herbicidal Efficacy Test of Treatment During Growth Stage […] Under Flooding Conditions
# (§3) After each 40-cm^2 plastic cup was loaded with puddled paddy field soil, seeds of each of Monochoria vaginalis (MV) or Ammannia multiflora (AM) were sown and grown in a greenhouse. After plants were grown for 14 days, one rice plant (variety: Nippon-bare) at the 2-leaf stage was transplanted at a transplanting depth of 1 cm. Water was flooded to a depth of 3 cm, and wettable powder containing the present invention compound, which had been adjusted according to Formulation Example 1, or each control compound was diluted with distilled water and applied dropwise to the water surface. The amount applied was 125, 63, or 31 g of active ingredient per hectare. The test was conducted in two series. On day 21 after treatment, the herbicidal efficacy and chemical damage were examined according to the following criteria.
# (§4) 9-10 . . . Herbicidal activity “Maximum”, 90% or higher herbicidal efficacy or chemical damage
# (§5) 7 to 8 . . . Herbicidal activity “high”, 70% or higher and less than 90% herbicidal efficacy or chemical damage
# (§6) 5 to 6 . . . Herbicidal activity “medium”, 50% or higher and less than 70% herbicidal efficacy or chemical damage
# (§7) 0 to 4 . . . Herbicidal activity “none to low”, 0% or higher and less than 50% herbicidal efficacy or chemical damage
# [1] = tested on: Monochoria vaginalis (MV); assay: as above; conditions: treatment during growth stage (14 days after sowing), day 21 after treatment
# From the text: as §1, §2, §3, §4, §5, §6, §7
# Oryza sativa (OS) = assay: Comparative Example: chemical damage to transplanted rice under flooding conditions; conditions: applied dropwise to water surface, day 21 after treatment
# From the text: as §1, §2, §3, §4, §5, §6, §7
# [2] = tested on: Schoenoplectiella juncoides (SJ); assay: Test Example 1: herbicidal effect test using paddy field flooding treatment; conditions: dose 16 g a.i./ha, water surface application, 21 days after treatment
# Method: (§8) <Test Example 1> Herbicidal Effect Test Using Paddy Field Flooding Treatment
# (§9) After each 40-cm^2 plastic cup was loaded with puddled paddy field soil, seeds of each of the following species were sown and grown in a greenhouse: Echinochloa crus-galli var. oryzicola (EC), Schoenoplectiella juncoides (SJ), Monochoria vaginalis (MV), or Ammannia multiflora (AM). After plants were grown for 14 days, water was flooded to a depth of 3 cm, and a 10% wettable powder, which had been adjusted according to Formulation Example 1, was diluted with distilled water and applied dropwise to the water surface. The amount applied was 1000, 500, 250, 125, 63, 31, or 16 g of active ingredient per hectare. The test was conducted in two series. Herbicidal efficacy (degree (%) of suppression of growth of terrestrial part: 100 (complete death) to 0 (no action)) was investigated at 21 days after the treatment.
# [3] = tested on: Echinochloa crus-galli var. oryzicola (EC); assay: as above; conditions: dose 1000 g a.i./ha, water surface application, 21 days after treatment
# Method: as §8, §9
SMILES,herbicidal efficacy AM (score 0-10) (Ammannia multiflora (AM); 31 g a.i./ha),herbicidal efficacy AM (score 0-10) (Ammannia multiflora (AM); 63 g a.i./ha),herbicidal efficacy AM (score 0-10) (Ammannia multiflora (AM); 125 g a.i./ha),herbicidal efficacy MV (score 0-10) ([1]; 31 g a.i./ha),herbicidal efficacy MV (score 0-10) ([1]; 63 g a.i./ha),herbicidal efficacy MV (score 0-10) ([1]; 125 g a.i./ha),chemical damage to transplanted rice OS (score 0-10) (Oryza sativa (OS); 31 g a.i./ha),chemical damage to transplanted rice OS (score 0-10) (Oryza sativa (OS); 63 g a.i./ha),chemical damage to transplanted rice OS (score 0-10) (Oryza sativa (OS); 125 g a.i./ha),herbicidal efficacy (degree (%) of suppression of growth of terrestrial part) [2],herbicidal efficacy (degree (%) of suppression of growth of terrestrial part) [3]
O=C1c2ccccc2CCN1Cc1ccccc1NS(=O)(=O)C(F)(F)F [Compound 3-1],10,10,10,10,10,10,0,0,0,,
CC=CC(=O)N(c1ccccc1CN1CCc2c(F)ccc(F)c2C1=O)S(=O)(=O)C(F)(F)F [Compound 3-116],,,,,,,,,,≥ 80%,
CCOC(=O)N(c1ccccc1CN1CCc2ccccc2C1=O)S(=O)(=O)C(F)(F)F [Compound 3-139],10,10,10,7,10,10,0,0,0,,
O=C1Cc2cc(F)ccc2N1Cc1ccccc1NS(=O)(=O)C(F)(F)F [Compound 8-2],,,,,,,,,,,≥ 80%
O=C1CCCCN1Cc1ccccc1NS(=O)(=O)C(F)(F)F [Compound a],10,10,10,10,10,10,6,10,10,,
CCOC(=O)N(c1ccccc1CN1CCCCC1=O)S(=O)(=O)C(F)(F)F [Compound b],10,10,10,7,10,10,3,8,10,,
